# Laboratory results: patent US9084420B2, “Amide derivative, pest control agent containing the amide derivative, and pest controlling method” (Mitsui Chemicals Agro, Inc., priority 2008, dated 2015)
# Structures can show the parent of a compound that is named as a salt.
# How the values were obtained:
# Plutella xylostella = assay: Pesticidal test against Plutella xylostella (cabbage leaf immersion); type: in vivo; details: 144 h, 3-stage larvae on treated cabbage leaf, 25° C., after 6 days, read-out: pesticidal rate
# Protocol: (§1) Pesticidal Test Against Plutella xylostella A piece of a cabbage leaf was immersed for 30 seconds in a chemical solution in which a test compound had been diluted at a predetermined concentration, and air-dried, and then put into a 7 cm polyethylene cup having a filter paper laid on the bottom thereof, and 3-stage larvae of Plutella xylostella were released. They were left to stand in a thermostatic chamber at 25° C., and the numbers of the living pests and the dead pests were examined after 6 days. The test was carried out with five larvae per group in two replicates.
# Spodoptera litura = assay: Pesticidal test against Spodoptera litura (cabbage leaf immersion); type: in vivo; details: 144 h, 2-stage larvae on treated cabbage leaf, 25° C., after 6 days, read-out: pesticidal rate
# Protocol: as §1, with “Spodoptera litura” for “Plutella xylostella”, “2-stage” for “3-stage”
SMILES,pest or weed control at 100 ppm (Plutella xylostella) [%],pest or weed control at 100 ppm (Spodoptera litura) [%]
"Cc1cc(C(F)(C(F)(F)F)C(F)(F)F)cc(C)c1NC(=O)c1cccc(N(CCC(N)=O)C(=O)c2ccccc2)c1 [1-1, N-(3-amino-3-oxopropyl)-N-(3-(2,6-dimethyl-4-(perfluoropropan-2-yl)phenylcarbamoyl)phenyl)benzamide]",≥ 70,≥ 70
"COC(=O)CCN(C(=O)c1ccccc1)c1cccc(C(=O)Nc2c(C)cc(C(F)(C(F)(F)F)C(F)(F)F)cc2C)c1 [5-1, methyl 3-(N-(3-(2,6-dimethyl-4-(perfluoropropan-2-yl)phenylcarbamoyl)phenyl)benzamide)propanoate]",≥ 70,≥ 70
"Cc1cc(C(F)(C(F)(F)F)C(F)(F)F)cc(C)c1NC(=O)c1cccc(N(CCC(=O)O)C(=O)c2ccccc2)c1 [5-4, 3-(N-(3-(2,6-dimethyl-4-(perfluoropropan-2-yl)phenylcarbamoyl)phenyl)benzamide)propanoic acid]",≥ 70,–
"Cc1cc(C(F)(C(F)(F)F)C(F)(F)F)cc(C)c1NC(=O)c1cccc(N(CCC(=O)NCCCC(NC(=O)OC(C)(C)C)C(=O)OC(C)(C)C)C(=O)c2ccccc2)c1 (stereo not drawn) [5-15, tert-butyl 2-(3-(2,6-dimethyl-4-(perfluoropropan-2-yl)phenylcarbamoyl)phenyl)-14,14-dimethyl-1,5,12-trioxo-1-phenyl-13-oxa-2,6,11-triazapentadecane-10-carboxylate]",≥ 70,≥ 70
"Cc1cc(C(F)(C(F)(F)F)C(F)(F)F)cc(C)c1NC(=O)c1cccc(N(CCC(=O)OCC(NC(=O)OC(C)(C)C)C(=O)OC(C)(C)C)C(=O)c2ccccc2)c1 (stereo not drawn) [5-22, tert-butyl 2-(tert-butoxycarbonylamino)-3-(3-(N-(3-(2,6-dimethyl-4-(perfluoropropan-2-yl)phenylcarbamoyl)phenyl)benzamide)propanoyloxy)propanoate]",≥ 70,≥ 70
"Cc1cc(C(F)(C(F)(F)F)C(F)(F)F)cc(C)c1NC(=O)c1cccc(N(CCC(=O)OCC(N)C(=O)O)C(=O)c2ccccc2)c1 (stereo not drawn) [5-25, 2-amino-3-(3-(N-(3-(2,6-dimethyl-4-(perfluoropropan-2-yl)phenylcarbamoyl)phenyl)benzamide)propanoyloxy)propanoic acid hydrochloric acid salt]",≥ 70,≥ 70
"N#Cc1ccc(C(=O)N(CCC(=O)NCC(N)=O)c2cccc(C(=O)Nc3c(Br)cc(C(F)(C(F)(F)F)C(F)(F)F)cc3Br)c2F)cc1 [5-31, 3-(N-(3-(2-amino-2-oxoethylamino)-3-oxopropyl)-4-cyanobenzamide)-N-(2,6-dibromo-4-(perfluoropropan-2-yl)phenyl)-2-fluorobenzamide]",≥ 70,≥ 70
"Cc1cc(C(F)(C(F)(F)F)C(F)(F)F)cc(C)c1N(C)C(=O)c1cccc(N(CCO)C(=O)c2ccccc2)c1 [5-35, N-(2,6-dimethyl-4-(perfluoropropan-2-yl)phenyl)-3-(N-(2-hydroxyethyl)benzamide)-N-methylbenzamide]",≥ 70,≥ 70
"CSCCN(C(=O)c1ccccc1)c1cccc(C(=O)N(C)c2c(C)cc(C(F)(C(F)(F)F)C(F)(F)F)cc2C)c1 [5-71, N-(2,6-dimethyl-4-(perfluoropropan-2-yl)phenyl)-N-methyl-3-(N-(2-(methylthio)ethyl)benzamide)benzamide]",≥ 70,≥ 70
"Cc1cc(C(F)(C(F)(F)F)C(F)(F)F)cc(C)c1N(C)C(=O)c1cccc(N(CC[S+](C)[O-])C(=O)c2ccccc2)c1 (stereo not drawn) [5-72, N-(2,6-dimethyl-4-(perfluoropropan-2-yl)phenyl)-N-methyl-3-(N-(2-(methylsulfinyl)ethyl)benzamide)benzamide]",≥ 70,≥ 70
"Cc1cc(C(F)(C(F)(F)F)C(F)(F)F)cc(C)c1N(C)C(=O)c1cccc(N(CCS(C)(=O)=O)C(=O)c2ccccc2)c1 [5-73, N-(2,6-dimethyl-4-(perfluoropropan-2-yl)phenyl)-N-methyl-3-(N-(2-(methylsulfonyl)ethyl)benzamide)benzamide]",≥ 70,≥ 70
"Cc1cc(C(F)(C(F)(F)F)C(F)(F)F)cc(C)c1NC(=O)c1cccc(N(CCC(=O)NN)C(=O)c2ccc(C#N)cc2)c1F [5-83, 3-(4-cyano-N-(3-hydrazinyl-3-oxopropyl)benzamide)-N-(2,6-dimethyl-4-(perfluoropropan-2-yl)phenyl)-2-fluorobenzamide]",≥ 70,≥ 70
"O=C(O)CCN(C(=O)c1ccccc1)c1cccc(C(=O)Nc2c(I)cc(C(F)(C(F)(F)F)C(F)(F)F)cc2C(F)(F)F)c1 [5-88, 3-(N-(3-(2-iodo-4-(perfluoropropan-2-yl)-6-(trifluoromethyl)phenylcarbamoyl)phenyl)benzamide)propanoic acid]",≥ 70,≥ 70
"Cc1cc(C(F)(C(F)(F)F)C(F)(F)F)cc(C)c1NC(=O)c1cccc(N(CC/C(N)=N/O)C(=O)c2ccccc2)c1 [5-91, N-(3-amino-3-(hydroxyimino)propyl)-N-(3-(2,6-dimethyl-4-(perfluoropropan-2-yl)phenylcarbamoyl)phenyl)benzamide]",≥ 70,≥ 70
"COC(=O)CN(C(=O)c1ccccc1)c1cccc(C(=O)N(C)c2c(C)cc(C(F)(C(F)(F)F)C(F)(F)F)cc2C)c1 [6-1, methyl 2-(N-(3((2,6-dimethyl-4-(perfluoropropan-2-yl)phenyl)(methyl)carbamoyl)phenyl)benzamide)acetate]",≥ 70,≥ 70
"CSCN(C(=O)c1ccccc1)c1cccc(C(=O)N(C)c2c(C)cc(C(F)(C(F)(F)F)C(F)(F)F)cc2C)c1 [6-6, N-(2,6-dimethyl-4-(perfluoropropan-2-yl)phenyl)-N-methyl-3-(N-(methylthiomethyl)benzamide)benzamide]",≥ 70,≥ 70
"Cc1cc(C(F)(C(F)(F)F)C(F)(F)F)cc(C)c1N(C)C(=O)c1cccc(N(C[S+](C)[O-])C(=O)c2ccccc2)c1 (stereo not drawn) [6-7, N-(2,6-dimethyl-4-(perfluoropropan-2-yl)phenyl)-N-methyl-3-(N-(methylsulfinylmethyl)benzamide)benzamide]",≥ 70,≥ 70
"Cc1cc(C(F)(C(F)(F)F)C(F)(F)F)cc(C)c1N(C)C(=O)c1cccc(N(CS(C)(=O)=O)C(=O)c2ccccc2)c1 [6-8, N-(2,6-dimethyl-4-(perfluoropropan-2-yl)phenyl)-N-methyl-3-(N-(methylsulfonylmethyl)benzamide)benzamide]",≥ 70,≥ 70
"Cc1cc(C(F)(C(F)(F)F)C(F)(F)F)cc(C)c1N(C)C(=O)c1cccc(N(CC(N)=O)C(=O)c2ccccc2)c1 [6-12, 3-(N-(2-amino-2-oxoethyl)benzamide)-N-(2,6-dimethyl-4-(perfluoropropan-2-yl)phenyl)-N-methylbenzamide]",≥ 70,≥ 70
"COC(=O)CCCN(C(=O)c1ccccc1)c1cccc(C(=O)N(C)c2c(C)cc(C(F)(C(F)(F)F)C(F)(F)F)cc2C)c1 [6-13, methyl 4-(N-(3-((2,6-dimethyl-4-(perfluoropropan-2-yl)phenyl)(methyl)carbamoyl)phenyl)benzamide)butanoate]",≥ 70,–
"Cc1cc(C(F)(C(F)(F)F)C(F)(F)F)cc(C)c1N(C)C(=O)c1cccc(N(CCCC(N)=O)C(=O)c2ccccc2)c1 [6-15, 3-(N-(4-amino-4-oxobutyl)benzamide)-N-(2,6-dimethyl-4-(perfluoropropan-2-yl)phenyl)-N-methylbenzamide]",≥ 70,≥ 70
"Cc1cc(C(F)(C(F)(F)F)C(F)(F)F)cc(C)c1NC(=O)c1cccc(N(CCCN/C(N)=N/[N+](=O)[O-])C(=O)c2ccccc2)c1 [6-61, N-(3-(2,6-dimethyl-4-(perfluoropropan-2-yl)phenylcarbamoyl)phenyl)-N-(3-(2-nitroguanidino)propyl)benzamide]",–,≥ 70
"COC(=O)CCN(C(=O)c1cccc(NC(=O)c2ccccc2)c1)c1c(C)cc(C(F)(C(F)(F)F)C(F)(F)F)cc1C [7-6, methyl 3-(3-benzamide-N-(2,6-dimethyl-4-(perfluoropropan-2-yl)phenyl)benzamide)propanoate]",≥ 70,–
"Cc1cc(C(F)(C(F)(F)F)C(F)(F)F)cc(C)c1N(CCO)C(=O)c1cccc(N(C)C(=O)c2ccccc2)c1F [7-23, N-(2,6-dimethyl-4-(perfluoropropan-2-yl)phenyl)-2-fluoro-N-(2-hydroxyethyl)-3-(N-methylbenzamide)benzamide]",≥ 70,–
"CS(=O)(=O)CCN(C(=O)c1cccc(NC(=O)c2ccccc2)c1F)c1c(Br)cc(C(F)(C(F)(F)F)C(F)(F)F)cc1Br [7-169, 3-benzamide-N-(2,6-dibromo-4-(perfluoropropan-2-yl)phenyl)-2-fluoro-N-(2-(methylsulfonyl)ethyl)benzamide]",≥ 70,–
"Cc1cc(C(F)(C(F)(F)F)C(F)(F)F)cc(C)c1N(CC(=O)O)C(=O)c1cccc(N(CC(=O)O)C(=O)c2ccccc2)c1F [8-13, 2-(N-(3((carboxymethyl)(2,6-dimethyl-4-(perfluoropropan-2-yl)phenyl)carbamoyl)-2-fluorophenyl)benzamide)acetic acid]",≥ 70,–
